Experimental data: ChEMBL document CHEMBL1159200, “A new flavonol glycoside gallate ester from Acer okamotoanum and its inhibitory activity against human immunodeficiency virus-1 (HIV-1) integrase” (J Nat Prod, 1998)
pIC50: −log10 of the molar value.

Biological target: Human immunodeficiency virus type 1 integrase (Human immunodeficiency virus 1, UniProt Q7ZJM1)
Experiment: Inhibition of HIV1 recombinant integrase expressed in Escherichia coli

Human immunodeficiency virus type 1 integrase, sequence (Q7ZJM1 whole entry): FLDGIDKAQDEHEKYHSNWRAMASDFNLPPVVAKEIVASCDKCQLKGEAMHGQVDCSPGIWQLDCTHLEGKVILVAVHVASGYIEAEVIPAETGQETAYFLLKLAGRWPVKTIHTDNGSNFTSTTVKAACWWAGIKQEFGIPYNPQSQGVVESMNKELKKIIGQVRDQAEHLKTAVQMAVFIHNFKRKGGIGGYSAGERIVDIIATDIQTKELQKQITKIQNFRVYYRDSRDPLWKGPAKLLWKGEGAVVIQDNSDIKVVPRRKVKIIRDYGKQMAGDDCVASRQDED

## O=c1c(O[C@@H]2OC[C@H](O)[C@H](O)[C@H]2O)c(-c2ccc(O)cc2)oc2cc(O)cc(O)c12
  pIC50: < 3.62

## O=c1c(O[C@@H]2O[C@H](CO)[C@H](O)[C@H](O)[C@H]2O)c(-c2ccc(O)c(O)c2)oc2cc(O)cc(O)c12 [HYPEROSIDE]
  pIC50: 3.86

## C[C@@H]1O[C@@H](Oc2c(-c3ccc(O)c(O)c3)oc3cc(O)cc(O)c3c2=O)[C@H](O)[C@H](O)[C@H]1O [QUERCITRIN]
  pIC50: 3.78

## O=C(O[C@H]1[C@H](Oc2c(-c3ccc(O)c(O)c3)oc3cc(O)cc(O)c3c2=O)O[C@H](CO)[C@H](O)[C@@H]1O)c1cc(O)c(O)c(O)c1
  pIC50: 4.34

## O=C(OC[C@H]1O[C@@H](OC(=O)c2cc(O)c(O)c(O)c2)[C@H](OC(=O)c2cc(O)c(O)c(O)c2)[C@@H](O)[C@@H]1O)c1cc(O)c(O)c(O)c1
  pIC50: 4.35

## COC(=O)c1cc(O)c(O)c(O)c1 [GALLIC ACID METHYL ESTER]
  pIC50: 3.81

## O=C(OC[C@H]1O[C@@H](OC(=O)c2cc(O)c(O)c(O)c2)[C@H](OC(=O)c2cc(O)c(O)c(O)c2)[C@@H](OC(=O)c2cc(O)c(O)c(O)c2)[C@@H]1OC(=O)c1cc(O)c(O)c(O)c1)c1cc(O)c(O)c(O)c1 [PENTAGALLOYL GLUCOSE]
  pIC50: 4.53

## O=C(O[C@H]1[C@H](Oc2c(-c3ccc(O)c(O)c3)oc3cc(O)cc(O)c3c2=O)OC[C@H](O)[C@@H]1O)c1cc(O)c(O)c(O)c1
  pIC50: 4.51

## O=C(OC[C@H]1O[C@@H](Oc2c(-c3ccc(O)c(O)c3)oc3cc(O)cc(O)c3c2=O)[C@H](OC(=O)c2cc(O)c(O)c(O)c2)[C@@H](O)[C@H]1O)c1cc(O)c(O)c(O)c1
  pIC50: 4.50
